{"source": "patent US7927600B2", "about": "“Anti-allergic pharmaceutical composition containing at least one allergen and at least one antihistamine compound” (priority 2001, dated 2011)", "tested_on": "allergic patients", "experiment": "Example 4: adverse effects", "assay_type": "in vivo, human", "details": "patients of Example 4", "data": [{"smiles": "CCOc1c(N)c2c(c(OCC)c1OCC)C(C1c3c(cc4c(c3OC)OCO4)CCN1C)OC2=O", "note": "(stereo not shown) [Hypostamine, tritoqualine]", "values": [{"measurement": "Adverse Effects, Conclusion (frequency)", "result": "Very rare"}]}]}
